Results taken from patent publication US8952024B2, “Herbicidal pyrimidone derivatives” (E I du Pont de Nemours and Company, priority 2009, dated 2015).

Assays:
Assay in all cases: Test B pre-/postemergence plant response
Assay type in all cases: in vivo
[1] = test system: ragweed (common ragweed, Ambrosia elatior)
Outline: (§1)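 Seeds sown in loam–sand blend were treated preemergence, and plants at 2–18 cm (1- to 4-leaf stage) in peat-based medium were treated postemergence; compounds were formulated in non-phytotoxic solvent with surfactant. After 13–15 days in greenhouse, response was visually rated against controls, 0 (no effect) to 100 (complete control).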

[2] = test system: woolly cupgrass (Eriochloa villosa)
Outline: as §1

[3] = test system: johnsongrass (Sorghum halepense)
Outline: as §1

[4] = test system: green foxtail (Setaria viridis)
Outline: as §1

[5] = test system: large crabgrass (Digitaria sanguinalis)
Outline: as §1

[6] = test system: giant foxtail (Setaria faberii)
Outline: as §1

[7] = test system: yellow nutsedge (Cyperus esculentus)
Outline: as §1

corn (Zea mays) = test system: corn (Zea mays)
Outline: as §1

[8] = test system: bermudagrass (Cynodon dactylon)
Outline: as §1

[9] = test system: Italian ryegrass (Lolium multiflorum)
Outline: as §1

[10] = test system: goosegrass (Eleusine indica)
Outline: as §1

[11] = test system: morningglory (Ipomoea coccinea)
Outline: as §1

[12] = test system: downy bromegrass (Bromus tectorum)
Outline: as §1

[13] = 250 g ai/ha, Preemergence, 0 to 100 scale
[14] = Postemergence, 62 g ai/ha, scale 0 (no effect) to 100 (complete control), 13 to 15 days
[15] = Postemergence, 125 g ai/ha, visual rating after 13 to 15 days, scale 0 (no effect) to 100 (complete control)
[16] = Preemergence, 31 g ai/ha, scale 0 to 100 (0 no effect, 100 complete control)
[17] = Preemergence, 125 g ai/ha, 0 to 100 scale
[18] = Postemergence, 31 g ai/ha, scale 0 to 100 (0 no effect, 100 complete control)
[19] = Postemergence, 250 g ai/ha, scale 0 to 100
[20] = Preemergence, 62 g ai/ha, scale 0 to 100 (0 no effect, 100 complete control)
[21] = Postemergence, 31 g ai/ha, 0 to 100 scale (0 no effect, 100 complete control)
[22] = Postemergence, 62 g ai/ha, scale 0 to 100 (0 no effect, 100 complete control)
[23] = Postemergence, 125 g ai/ha, scale 0 (no effect) to 100 (complete control), 13 to 15 days
[24] = Postemergence, 250 g ai/ha, scale 0 to 100 (0 no effect, 100 complete control), 13 to 15 days
[25] = Postemergence, 125 g ai/ha, scale 0 to 100 (0 no effect, 100 complete control)
[26] = 62 g ai/ha, postemergence, 0 is no effect, 100 is complete control, 13 to 15 days

Cc1cccc(Cl)c1-n1c(-c2ccccc2)ncc(C(=O)C2=C(O)CCCC2=O)c1=O [Compound 46]
0: Plant response rating, Johnsongrass [3, 16] | Plant response rating, Foxtail, Green [4, 16] | Plant response rating, Foxtail, Green [4, 20] | Plant response rating, Foxtail, Giant [6, 16] | Plant response rating, Foxtail, Giant [6, 20] | Plant response rating, Corn (corn (Zea mays); [13]) | Plant response rating, Corn (corn (Zea mays); [16]) | Plant response rating, Corn (corn (Zea mays); [20]) | Corn plant response rating (corn (Zea mays); [17]) | Plant response rating, Bermudagrass [8, 16] | Plant response rating, Ryegrass, Italian [9, 13] | Plant response rating, Ryegrass, Italian [9, 16] | Ryegrass, Italian plant response rating [9, 17] | Plant response rating, Morningglory [11, 13] | Plant response rating, Morningglory [11, 16] | Plant response rating, Morningglory [11, 20] | Morningglory plant response rating [11, 17] | Plant response rating, Bromegrass, Downy [12, 13] | Plant response rating, Bromegrass, Downy [12, 18] | Plant response rating, Bromegrass, Downy [12, 16] | Plant response rating, Bromegrass, Downy [12, 20] | Bromegrass, Downy plant response rating [12, 17]
50: Cupgrass, Woolly plant response rating [2, 17] | Plant response rating, Johnsongrass [3, 14]
90: Plant response rating, Nutsedge, Yellow [7, 13] | Plant response rating, Bermudagrass [8, 15] | Bermudagrass plant response rating [8, 19]
20: Plant response rating, Cupgrass, Woolly [2, 14] | Plant response rating, Corn (corn (Zea mays); [18])
5: Foxtail, Green plant response rating [4, 17] | Plant response rating, Ryegrass, Italian [9, 14] | Plant response rating, Ryegrass, Italian [9, 15] | Plant response rating, Bromegrass, Downy [12, 14]
45: Cupgrass, Woolly plant response rating [2, 19] | Plant response rating, Cupgrass, Woolly [2, 20] | Johnsongrass plant response rating [3, 17] | Plant response rating, Foxtail, Green [4, 18] | Plant response rating, Crabgrass, Large [5, 16] | Plant response rating, Morningglory [11, 15]
70: Plant response rating, Johnsongrass [3, 13] | Plant response rating, Johnsongrass [3, 15] | Plant response rating, Foxtail, Giant [6, 18] | Plant response rating, Nutsedge, Yellow [7, 14] | Plant response rating, Nutsedge, Yellow [7, 15]
75: Plant response rating, Ragweed [1, 14] | Johnsongrass plant response rating [3, 19] | Plant response rating, Crabgrass, Large [5, 15] | Crabgrass, Large plant response rating [5, 19] | Plant response rating, Crabgrass, Large [5, 20] | Corn plant response rating (corn (Zea mays); [19]) | Plant response rating, Goosegrass [10, 14]
30: Plant response rating, Morningglory [11, 14]
60: Plant response rating, Cupgrass, Woolly [2, 13] | Plant response rating, Foxtail, Green [4, 14] | Plant response rating, Crabgrass, Large [5, 18] | Plant response rating, Corn (corn (Zea mays); [15])
80: Plant response rating, Ragweed [1, 15] | Plant response rating, Foxtail, Giant [6, 14] | Plant response rating, Foxtail, Giant [6, 15] | Nutsedge, Yellow plant response rating [7, 17] | Plant response rating, Bermudagrass [8, 18] | Plant response rating, Goosegrass [10, 15] | Goosegrass plant response rating [10, 19]
65: Plant response rating, Crabgrass, Large [5, 14]
10: Plant response rating, Cupgrass, Woolly [2, 18] | Plant response rating, Cupgrass, Woolly [2, 16] | Plant response rating, Johnsongrass [3, 20] | Plant response rating, Foxtail, Green [4, 13] | Plant response rating, Bromegrass, Downy [12, 15]
98: Plant response rating, Crabgrass, Large [5, 13] | Plant response rating, Bermudagrass [8, 13] | Plant response rating, Goosegrass [10, 13] | Goosegrass plant response rating [10, 17]
25: Plant response rating, Cupgrass, Woolly [2, 15] | Plant response rating, Foxtail, Giant [6, 13] | Plant response rating, Nutsedge, Yellow [7, 16] | Bromegrass, Downy plant response rating [12, 19]
100: Plant response rating, Ragweed [1, 13] | Plant response rating, Ragweed [1, 16] | Ragweed plant response rating [1, 17]
85: Plant response rating, Foxtail, Green [4, 15] | Foxtail, Green plant response rating [4, 19] | Crabgrass, Large plant response rating [5, 17] | Foxtail, Giant plant response rating [6, 19] | Plant response rating, Bermudagrass [8, 14] | Plant response rating, Goosegrass [10, 16]
35: Plant response rating, Corn (corn (Zea mays); [14])
15: Foxtail, Giant plant response rating [6, 17]

COCCCn1c(-c2cccc(F)c2)ncc(C(=O)C2=C(O)C3CCC(C3)C2=O)c1=O (stereo not shown) [Compound 238]
100: Plant response rating, Ragweed [1, 21] | Plant response rating, Ragweed [1, 22] | Plant response rating, Ragweed [1, 23] | Plant response rating, Ragweed [1, 24] | Plant response rating, Cupgrass, Woolly [2, 22] | Plant response rating, Cupgrass, Woolly [2, 23] | Plant response rating, Cupgrass, Woolly [2, 24] | Plant response rating, Johnsongrass [3, 24] | Plant response rating, Foxtail, Giant [6, 21] | Plant response rating, Foxtail, Giant [6, 22] | Plant response rating, Foxtail, Giant [6, 23] | Plant response rating, Foxtail, Giant [6, 24] | Plant response rating, Bermudagrass [8, 23] | Plant response rating, Bermudagrass [8, 24] | Plant response rating, Morningglory [11, 23] | Plant response rating, Morningglory [11, 24]
25: Plant response rating, Nutsedge, Yellow [7, 24] | Plant response rating, Ryegrass, Italian [9, 22] | Plant response rating, Ryegrass, Italian [9, 23]
80: Plant response rating, Corn (corn (Zea mays); [21]) | Plant response rating, Corn (corn (Zea mays); [22])
95: Plant response rating, Cupgrass, Woolly [2, 21] | Plant response rating, Foxtail, Green [4, 22] | Plant response rating, Crabgrass, Large [5, 21] | Plant response rating, Corn (corn (Zea mays); [23]) | Plant response rating, Corn (corn (Zea mays); [24]) | Plant response rating, Bermudagrass [8, 21] | Plant response rating, Goosegrass [10, 21]
85: Plant response rating, Foxtail, Green [4, 21] | Plant response rating, Bromegrass, Downy [12, 24]
70: Plant response rating, Ryegrass, Italian [9, 24]
60: Plant response rating, Johnsongrass [3, 21]
50: Plant response rating, Bromegrass, Downy [12, 23]
10: Plant response rating, Bromegrass, Downy [12, 21]
20: Plant response rating, Nutsedge, Yellow [7, 21] | Plant response rating, Nutsedge, Yellow [7, 22] | Plant response rating, Nutsedge, Yellow [7, 23] | Plant response rating, Ryegrass, Italian [9, 21]
98: Plant response rating, Johnsongrass [3, 23] | Plant response rating, Foxtail, Green [4, 23] | Plant response rating, Foxtail, Green [4, 24] | Plant response rating, Crabgrass, Large [5, 22] | Plant response rating, Crabgrass, Large [5, 23] | Plant response rating, Crabgrass, Large [5, 24] | Plant response rating, Bermudagrass [8, 22] | Plant response rating, Goosegrass [10, 22] | Plant response rating, Goosegrass [10, 23] | Plant response rating, Goosegrass [10, 24]
40: Plant response rating, Bromegrass, Downy [12, 22]

O=C1CCCC(O)=C1C(=O)c1cnc(-c2cc(F)cc(F)c2)n(C2CCCCC2)c1=O [Compound 181]
40: Plant response rating, Bromegrass, Downy [12, 21]
100: Plant response rating, Ragweed [1, 25] | Plant response rating, Ragweed [1, 24] | Plant response rating, Cupgrass, Woolly [2, 25] | Plant response rating, Cupgrass, Woolly [2, 24] | Plant response rating, Johnsongrass [3, 21] | Plant response rating, Johnsongrass [3, 25] | Plant response rating, Johnsongrass [3, 24] | Plant response rating, Crabgrass, Large [5, 25] | Plant response rating, Crabgrass, Large [5, 24] | Plant response rating, Foxtail, Giant [6, 25] | Plant response rating, Foxtail, Giant [6, 24] | Bermudagrass plant response rating (0 to 100 scale) [8, 26] | Plant response rating, Bermudagrass [8, 21] | Plant response rating, Bermudagrass [8, 25] | Plant response rating, Bermudagrass [8, 24] | Plant response rating, Goosegrass [10, 25] | Plant response rating, Goosegrass [10, 24] | Plant response rating, Morningglory [11, 25] | Plant response rating, Morningglory [11, 24]
65: Plant response rating, Ryegrass, Italian [9, 24]
50: Bromegrass, Downy plant response rating (0 to 100 scale) [12, 26]
95: Plant response rating, Foxtail, Green [4, 25] | Plant response rating, Corn (corn (Zea mays); [25]) | Plant response rating, Corn (corn (Zea mays); [24]) | Plant response rating, Goosegrass [10, 21] | Plant response rating, Morningglory [11, 21]
80: Plant response rating, Cupgrass, Woolly [2, 21] | Plant response rating, Nutsedge, Yellow [7, 25]
60: Plant response rating, Nutsedge, Yellow [7, 21] | Plant response rating, Ryegrass, Italian [9, 25] | Plant response rating, Bromegrass, Downy [12, 25]
98: Plant response rating, Ragweed [1, 21] | Plant response rating, Foxtail, Green [4, 24] | Plant response rating, Crabgrass, Large [5, 21] | Plant response rating, Foxtail, Giant [6, 21]
85: Plant response rating, Nutsedge, Yellow [7, 24] | Plant response rating, Bromegrass, Downy [12, 24]
10: Plant response rating, Ryegrass, Italian [9, 21]
70: Plant response rating, Foxtail, Green [4, 21] | Plant response rating, Corn (corn (Zea mays); [21])
